Reference: US20170157103A1, “METHODS OF TREATING DIFFUSE LARGE B-CELL LYMPHOMA USING 3-(4-AMINO-1-OXOISOINDOLIN-2-YL)PIPERIDINE-2,6-DIONE” (Celgene Corporation, priority 2015, published 2017)

Legend:
[1] = system: relapsed or refractory diffuse large B-cell lymphoma; test: Clinical trial of lenalidomide vs control in relapsed or refractory DLBCL patients, subtype determined by Affymetrix; type: in vivo, human; conditions: for Median overall survival / Median progression free survival: relapsed or refractory DLBCL patients
Excerpt: DLBCL lymph-node biopsies were either snap frozen or formalin fixed and paraffin embedded similarly to that described by Scott et al., Blood 2014 123(8) 1214-1217, the disclosure of which is incorporated herein in its entirety. Messenger RNA was purified and reverse transcribed into cDNA.
DNA microarray analysis of gene expression was done essentially as described below. The cDNA clones on the Lymphochip microarray are available from Research Genetics. Fluorescent images of hybridized microarrays were obtained using a GenePix 4000 microarray scanner (Axon Instruments). Images were analysed with ScanAlyze (M. Eisen; http://www.microarrays.org/software), and fluorescence ratios (along with numerous quality control parameters; see ScanAlyze manual) were stored in a custom database. Single spots or areas of the array with obvious blemishes were flagged and excluded from subsequent analyses. Fluorescence ratios were calibrated independently for each array by applying a single scaling factor to all fluorescent ratios from each array; this scaling factor was computed so that the median fluorescence ratio of well-measured spots on each array was 1.0.
All cDNA microarray analyses were performed using poly-(A)^+ mRNA (Fast Track, Invitrogen). In each experiment, fluorescent cDNA probes were prepared from an experimental mRNA sample (Cy5-labelled) and a control mRNA sample (Cy3-labelled) isolated from a pool of nine lymphoma cell lines (Raji, Jurkat, L428, OCI-Ly3, OCI-Ly8, OCI-Lyl, SUDHL5, SUDHL6 and WSU1). The use of a common control cDNA probe allows the relative expression of each gene to be compared across all samples.
All non-flagged array elements for which the fluorescent intensity in each channel was greater than 1.4 times the local background were considered well measured. The ratio values were log-transformed (base 2) and stored in a table (rows, individual cDNA clones; columns, single mRNA samples). Data for the genes were centered by subtracting (in log space) the median observed value, to remove any effect of the amount of RNA in the reference pool. This dataset contains 4,026 array elements. Hierarchical clustering was applied to both axes using the weighted pair-group method with centroid average as implemented in the program Cluster (M. Eisen; http://www.microarrays.org/software). The distance matrixes used were Pearson correlation for clustering the arrays and the inner product of vectors normalized to magnitude 1 for the genes. The results were analysed with Tree View (M. Eisen; http://www.microarrays.org/software).
(§1) This clinical benefit is observed when subtype is determined by the Affymetrix test (FIG. 1) or by the NanoString test (FIG. 2).

[2] = system: relapsed or refractory diffuse large B-cell lymphoma; test: Clinical trial of lenalidomide vs control in relapsed or refractory DLBCL patients, subtype determined by NanoString; type: in vivo, human; conditions: for Median overall survival / Median progression free survival: relapsed or refractory DLBCL patients
Excerpt: DLBCL lymph-node biopsies were formalin fixed and paraffin embedded (FFPE) similarly to that described in Scott et al., Blood 2014 123(8) 1214-1217, the disclosure of which is incorporated by reference herein. Nucleic acids obtained from the tissues were extracted using the QIAGEN AllPrep DNA/RNA FFPE Kit, with deparaffinization achieved using the QIAGEN Deparaffinization Solution, according to the manufacturer's instructions. The RNA was quantitated using spectrophotometry (NanoDrop, Thermo Science, DE). Gene expression on approximately 200 nanograms of RNA was used to determine gene expression levels by means of NanoString technology (NanoString Technologies, WA). The total RNA was hybridized to the custom codesets at 65° C. overnight. The reaction was processed on the nCounter™ Prep Station and gene expression data was then acquired on the nCounter™ Digital Analyzer.
as §1

[3] = ABC plus unclassified subtype (by Affymetrix)
[4] = ABC plus unclassified subtype (by Nanostring)

Nc1cccc2c1CN(C1CCC(=O)NC1=O)C2=O (centres unmarked) [lenalidomide, 3-(4-amino-1-oxoisoindolin-2-yl)piperidine-2,6-dione] was tested, and the “Clinical benefit compared to control as measured by progression free survival” value ([1]; ABC DLBCL subtype patients and unclassifiable patients, subtype by Affymetrix test (FIG. 1)) was “benefit”, the Median overall survival [1, 3] was 16.3/33^ weeks and the “Median progression free survival” value [1, 3] was 6.3/9.1 weeks. The Median overall survival ([1]; ABC subtype (by Affymetrix)) was 18.6/108.4 weeks, the “Median progression free survival” value ([1]; ABC subtype (by Affymetrix)) was 6.2/82 weeks and the Median overall survival ([1]; GBC subtype (by Affymetrix)) was 20/30 weeks. The “Median progression free survival” value ([1]; GBC subtype (by Affymetrix)) was 7.1/13.2 weeks, the “Clinical benefit compared to control as measured by progression free survival” value ([2]; ABC DLBCL subtype patients and unclassifiable patients, subtype by NanoString test (FIG. 2)) was “benefit” and the Median overall survival [2, 4] was 36.9/108.4 weeks. The “Median progression free survival” value [2, 4] was 6.6/82 weeks, the Median overall survival ([2]; ABC subtype (by Nanostring)) was 37/43.7 weeks and the “Median progression free survival” value ([2]; ABC subtype (by Nanostring)) was 6/27 weeks. For the same compound, the Median overall survival ([2]; GBC subtype (by Nanostring)) was 34.9/18 weeks and the “Median progression free survival” value ([2]; GBC subtype (by Nanostring)) was 9/8.7 weeks.
